Measured values from ChEMBL document CHEMBL5331060, “Bisindole natural products: A vital source for the development of new anticancer drugs” (Eur J Med Chem, 2022).
pIC50: −log10 of the molar value. Converted amounts (≈) assume the structure as drawn. Blank lines part the entries; values can stand above or below the molecule they belong to.

Columns and labels:
HL-60 [1] = experiment: Antiproliferative activity against human HL-60 cells assessed as inhibition of cell growth incubated for 48 hrs by WST-1 assay; assay type: functional, cell-based; conditions: HL-60, 48 h
K562 = experiment: Antiproliferative activity against human K562 cells assessed as inhibition of cell growth incubated for 48 hrs by WST-1 assay; assay type: functional, cell-based; conditions: K562, 48 h
KB [2] = experiment: Antiproliferative activity against drug-sensitive human KB cells assessed as inhibition of cell growth; assay type: functional, cell-based
[3] = Antiproliferative activity against vincristine-resistant human KB cells assessed as inhibition of cell growth; assay type: functional, cell-based
SMMC-7721 = experiment: Antiproliferative activity against human SMMC-7721 cells assessed as inhibition of cell growth incubated for 48 hrs by MTS assay; assay type: functional, cell-based; conditions: SMMC-7721, 48 h
SW480 [4] = experiment: Antiproliferative activity against human SW480 cells assessed as inhibition of cell growth incubated for 48 hrs by MTS assay; assay type: functional, cell-based; conditions: SW480, 48 h
A549 = experiment: Antiproliferative activity against human A549 cells assessed as inhibition of cell growth incubated for 48 hrs by MTS assay; assay type: functional, cell-based; conditions: A549, 48 h
MCF7 [5] = experiment: Antiproliferative activity against human MCF7 cells assessed as inhibition of cell growth incubated for 48 hrs by MTS assay; assay type: functional, cell-based; conditions: MCF7, 48 h
HL-60 [6] = experiment: Antiproliferative activity against human HL-60 cells assessed as inhibition of cell growth incubated for 48 hrs by MTS assay; assay type: functional, cell-based; conditions: HL-60, 48 h
LoVo = experiment: Antiproliferative activity against human LoVo cells assessed as inhibition of cell growth by MTT assay; assay type: functional, cell-based
HepG2 = experiment: Antiproliferative activity against human HepG2 cells assessed as inhibition of cell growth by MTT assay; assay type: functional, cell-based
MCF7 [7] = experiment: Antiproliferative activity against human MCF7 cells assessed as inhibition of cell growth by MTT assay; assay type: functional, cell-based
MCF7 [8] = experiment: Antiproliferative activity against human MCF7 cells assessed as inhibition of cell growth incubated for 48 hrs by MTT assay; assay type: functional, cell-based; conditions: MCF7, 48 h
SW480 [9] = experiment: Antiproliferative activity against human SW480 cells assessed as inhibition of cell growth incubated for 48 hrs by MTT assay; assay type: functional, cell-based; conditions: SW480, 48 h
HeLa [10] = experiment: Antiproliferative activity against human HeLa cells assessed as inhibition of cell growth incubated for 48 hrs by MTT assay; assay type: functional, cell-based
HT-29 = experiment: Antiproliferative activity against human HT-29 cells assessed as inhibition of cell growth incubated for 48 hrs by MTS assay; assay type: functional, cell-based; conditions: HT-29, 48 h
[11] = Antiproliferative activity against mouse […] cells assessed as inhibition of cell growth; assay type: functional, cell-based
KB [12] = experiment: Antiproliferative activity against human KB cells assessed as inhibition of cell growth incubated for 72 hrs by neutral red based colorimetric assay; assay type: functional
HeLa [13] = experiment: Antiproliferative activity against human HeLa cells assessed as inhibition of cell growth incubated for 6 hrs; assay type: functional, cell-based
HeLa [14] = experiment: Antiproliferative activity against human HeLa cells assessed as inhibition of cell growth incubated for 24 hrs; assay type: functional, cell-based

Compound: CC[C@]12CN3CCc4c([nH]c5ccccc45)[C@@](C(=O)OC)(c4cc5c(cc4OC)N(C)[C@H]4[C@@](O)(C(=O)OC)[C@H](OC(C)=O)[C@]6(CC)C=CCN7CC[C@]54[C@@H]76)C[C@@H](C3)[C@H]1O2 [VINLEUROSINE]
pIC50 (HL-60 [1]): 4.25
pIC50 (K562): 4.25

Compound: CC[C@]12C=C([C@@H]3C=C[C@@]4(CC)CC(C(=O)OC)=C5Nc6ccccc6[C@@]56CCN3[C@@H]46)[C@@H](CC(C)=O)N3CC[C@]4(C(=C(C(=O)OC)C1)Nc1ccccc14)[C@@H]32
pIC50 (SMMC-7721): 4.88
pIC50 (SW480 [4]): 4.88
pIC50 (A549): 4.88
pIC50 (MCF7 [5]): 4.88
pIC50 (HL-60 [6]): 4.88

Compound: CC[C@]12C=CCN3CC[C@]4(C(=C(C(=O)OC)C1)Nc1cc5c(cc14)[C@@H]1[C@H](O5)[C@@H](O)[C@@]4(CC)CC(C(=O)OC)=C5Nc6c(ccc(OC)c6OC)[C@@]56CCN1[C@@H]46)[C@@H]32
pIC50 (MCF7 [8]): 5.85
pIC50 (SW480 [9]): 5.85
pIC50 (SMMC-7721): 6.52
pIC50 (A549): 5.47
pIC50 (HeLa [10]): 5.85
pIC50 (HT-29): 6.12

Compound: Brc1ccc2c(-c3nc(-c4c[nH]c5ccccc45)c[nH]3)c[nH]c2c1 [NORTOPSENTIN B]
IC50 [11]: 7.8 µg/mL (≈ 20.7 µM)

Compound: CCC(=O)C[C@@H]1CN(C=O)CCc2c([nH]c3ccccc23)[C@@](C(=O)OC)(c2cc3c(cc2OC)N(C)[C@@H]2[C@]34CCN3CC=C[C@@](CC)(C[C@]2(O)C(=O)OC)[C@H]34)C1
pIC50 (HL-60 [1]): 4.25
pIC50 (K562): 4.25

Compound: CC[C@]12CN3CC[C@@]45C(=Nc6ccccc64)[C@@](C(=O)OC)(c4cc6c(cc4OC)N(C)[C@H]4[C@@](O)(C(=O)OC)[C@H](OC(C)=O)[C@]7(CC)C=CCN8CC[C@]64[C@@H]87)C[C@H]([C@H]1O2)[C@H]35
pIC50 (HL-60 [1]): 4.25
pIC50 (K562): 4.25

Compound: Brc1ccc2c(-c3c[nH]c(-c4c[nH]c5cc(Br)ccc45)n3)c[nH]c2c1 [NORTOPSENTIN A]
IC50 [11]: 7.6 µg/mL (≈ 16.7 µM)

Continued, in another order:

pIC50 (HL-60 [1]): < 4.00
pIC50 (K562): < 4.00
Compound: CCC(=O)[C@H](O)[C@@H]1CN(C=O)CCc2c([nH]c3ccccc23)[C@@](C(=O)OC)(c2cc3c(cc2OC)N(C)[C@H]2[C@@](O)(C(=O)OC)[C@H](OC(C)=O)[C@]4(CC)C=CCN5CC[C@]32[C@@H]54)C1

pIC50 (KB [2]): 6.24
Compound: C/C=C1/CN2[C@H]3Cc4c([nH]c5ccc(O)c([C@H]6Cn7c8c(c9ccccc97)CCN7CC=C[C@@]6(CC)[C@H]87)c45)[C@@H]2C[C@@H]1[C@]3(CO)C(=O)OC
pIC50 [3]: 6.24

pIC50 (LoVo): < 4.00
pIC50 (HepG2): 4.55
pIC50 (MCF7 [7]): 4.37
Compound: CC[C@]1(O)C[C@H]2C[C@](C(=O)OC)(c3cc4c(cc3OC)N(C)[C@@H]3[C@]45CCN4CC=C[C@@](CC)(C[C@]3(O)C(=O)OC)[C@H]45)c3[nH]c4ccccc4c3CC[N+]([O-])(C2)C1

pIC50 (SMMC-7721): 4.88
pIC50 (SW480 [4]): 4.88
pIC50 (A549): 4.88
pIC50 (MCF7 [5]): 4.88
pIC50 (HL-60 [6]): 4.88
Compound: CC[C@]12C=C[C@H]([C@@]34CN5CC[C@]67C(=C(C(=O)OC)C[C@](CC)([C@@H]3O4)[C@H]56)Nc3cc(OC)ccc37)N3CC[C@]4(C(=C(C(=O)OC)C1)Nc1cc(OC)ccc14)[C@@H]32

pIC50 (MCF7 [8]): 5.85
pIC50 (SW480 [9]): 5.85
pIC50 (SMMC-7721): < 4.40
pIC50 (A549): < 4.40
pIC50 (HeLa [10]): 5.85
pIC50 (HT-29): < 4.40
Compound: CC[C@@]12C=C(C(=O)OC)C3Nc4cc(OC)c(O)cc4[C@@]34CCN([C@@H]3c5cc6c(cc5O[C@@H]3[C@H]1O)NC1=C(C(=O)OC)C[C@]3(CC)[C@@H]5O[C@@H]5CN5CC[C@@]16[C@@H]53)[C@@H]24 (stereo partly drawn)

pIC50 (MCF7 [8]): 5.85
pIC50 (SW480 [9]): 5.85
pIC50 (HeLa [10]): 5.85
Compound: CC[C@@]12CC(C(=O)OC)=C3Nc4cc5c(cc4[C@@]34CCN(C[C@H]3O[C@H]31)[C@@H]24)[C@@H]1[C@H](O5)[C@@H](O)[C@@]2(CC)CC(C(=O)OC)=C3Nc4c(cc(O)c(OC)c4OC)[C@@]34CC[N+]1([O-])[C@@H]24 (stereo partly drawn)

pIC50 (HL-60 [1]): 4.25
pIC50 (K562): 4.25
Compound: CC/C1=C/N(C=O)CCc2c([nH]c3ccccc23)[C@@](C(=O)OC)(c2cc3c(cc2OC)N(C)[C@H]2[C@@](O)(C(=O)OC)[C@H](OC(C)=O)[C@]4(CC)C=CCN5CC[C@]32[C@@H]54)CC(=O)C1

pIC50 (KB [12]): 5.30
Compound: C/C=C1/CN2CC[C@@]34c5cc(OC)c(-c6cc7c8c(n(C)c7cc6OC)[C@@H]6[C@H]7O[C@@H](C)[C@H](CN6C(=O)C(C)C)[C@H]7[C@H]8C(=O)OC)c(C)c5N[C@@]23CC[C@H]1[C@H]4C(=O)OC

pIC50 (HeLa [13]): 3.78
pIC50 (HeLa [14]): 3.84
Compound: N[C@H](CNC(=O)C(=O)c1c[nH]c2ccccc12)c1c[nH]c2cc(Br)ccc12

pIC50 (LoVo): 4.19
pIC50 (HepG2): 4.42
pIC50 (MCF7 [7]): 4.29
Compound: CC[C@@H]1C[C@H]2C[C@](C(=O)OC)(c3cc4c(cc3OC)N(C)[C@H]3[C@@](O)(C(=O)OC)[C@H](OC(C)=O)[C@]5(CC)C=CCN6CC[C@]43[C@@H]65)c3[nH]c4ccccc4c3CC[N+]([O-])(C1)C2
